Test system: 855422-203-R-J1-PDC complex spheroid viability
Experiment: Anticancer human tumor 855422-203-R-J1-PDC patient-derived bladder carcinoma cell line growth inhibition
Conditions: for IC50: curve of first compound; for viability, T/C: stronger effect = lower value
In short: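 Multicellular complex spheroids of tumor cells with human endothelial cells (HUVEC) and mesenchymal stem cells; the LSD1 inhibitor iadademstat was combined with standard-of-care or investigational agents. Top concentration at or near clinical Cmax, half-log dilutions; final DMSO ≤0.25%.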
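Also: drug exposure lasted 7 days starting on day 3 after seeding.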
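For viability, T/C in this document: luminescence viability as percent of DMSO vehicle wells = 100%.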

SMILES: CC1(C)CCC(CN2CCN(c3ccc(C(=O)NS(=O)(=O)c4ccc(NCC5CCOCC5)c([N+](=O)[O-])c4)c(Oc4cnc5[nH]ccc5c4)c3)CC2)=C(c2ccc(Cl)cc2)C1 + NC1CC1c1ccc(-c2cccc(O)c2)cc1
- IC50 (second compound 0.1 µM): 6.25 µM
- IC50 (second compound 0.316 µM): 6.32 µM
- IC50 (second compound 1 µM): 5.81 µM
- IC50 (second compound 3.16 µM): 5.77 µM
- IC50 (second compound 10 µM): 5.48 µM
- viability, T/C (second compound 0.1 µM, first compound 0.0316 µM): 90.2%
- viability, T/C (second compound 0.1 µM, first compound 0.1 µM): 104%
- viability, T/C (second compound 0.1 µM, first compound 0.316 µM): 93.5%
- viability, T/C (second compound 0.1 µM, first compound 1 µM): 94.5%
- viability, T/C (second compound 0.1 µM, first compound 3.16 µM): 95.5%
- viability, T/C (second compound 0.1 µM, first compound 10 µM): 18.6%
- viability, T/C (second compound 0.316 µM, first compound 0.0316 µM): 87%
- viability, T/C (second compound 0.316 µM, first compound 0.1 µM): 101%
- viability, T/C (second compound 0.316 µM, first compound 0.316 µM): 101%
- viability, T/C (second compound 0.316 µM, first compound 1 µM): 103%
- viability, T/C (second compound 0.316 µM, first compound 3.16 µM): 97.2%
- viability, T/C (second compound 0.316 µM, first compound 10 µM): 18.6%
- viability, T/C (second compound 1 µM, first compound 0.0316 µM): 85.9%
- viability, T/C (second compound 1 µM, first compound 0.1 µM): 92.1%
- viability, T/C (second compound 1 µM, first compound 0.316 µM): 90.3%
- viability, T/C (second compound 1 µM, first compound 1 µM): 91.5%
- viability, T/C (second compound 1 µM, first compound 3.16 µM): 88.4%
- viability, T/C (second compound 1 µM, first compound 10 µM): 15.8%
- viability, T/C (second compound 3.16 µM, first compound 0.0316 µM): 85.4%
- viability, T/C (second compound 3.16 µM, first compound 0.1 µM): 87.3%
- viability, T/C (second compound 3.16 µM, first compound 0.316 µM): 89.4%
- viability, T/C (second compound 3.16 µM, first compound 1 µM): 91.1%
- viability, T/C (second compound 3.16 µM, first compound 3.16 µM): 94.6%
- viability, T/C (second compound 3.16 µM, first compound 10 µM): 13.8%
- viability, T/C (second compound 10 µM, first compound 0.0316 µM): 79.7%
- viability, T/C (second compound 10 µM, first compound 0.1 µM): 82.9%
- viability, T/C (second compound 10 µM, first compound 0.316 µM): 82.6%
- viability, T/C (second compound 10 µM, first compound 1 µM): 82.5%
- viability, T/C (second compound 10 µM, first compound 3.16 µM): 84.8%
- viability, T/C (second compound 10 µM, first compound 10 µM): 14.5%

SMILES: CCN(c1cc(-c2ccc(CN3CCOCC3)cc2)cc(C(=O)NCc2c(C)cc(C)[nH]c2=O)c1C)C1CCOCC1 + NC1CC1c1ccc(-c2cccc(O)c2)cc1
- IC50 (second compound 0.1 µM): > 3 µM
- IC50 (second compound 0.316 µM): > 3 µM
- IC50 (second compound 1 µM): > 3 µM
- IC50 (second compound 3.16 µM): > 3 µM
- IC50 (second compound 10 µM): > 3 µM
- viability, T/C (second compound 0.1 µM, first compound 0.00949 µM): 90.2%
- viability, T/C (second compound 0.1 µM, first compound 0.03 µM): 96.8%
- viability, T/C (second compound 0.1 µM, first compound 0.0949 µM): 99%
- viability, T/C (second compound 0.1 µM, first compound 0.3 µM): 98%
- viability, T/C (second compound 0.1 µM, first compound 0.949 µM): 89%
- viability, T/C (second compound 0.1 µM, first compound 3 µM): 84.9%
- viability, T/C (second compound 0.316 µM, first compound 0.00949 µM): 89%
- viability, T/C (second compound 0.316 µM, first compound 0.03 µM): 96.8%
- viability, T/C (second compound 0.316 µM, first compound 0.0949 µM): 96.5%
- viability, T/C (second compound 0.316 µM, first compound 0.3 µM): 105%
- viability, T/C (second compound 0.316 µM, first compound 0.949 µM): 93%
- viability, T/C (second compound 0.316 µM, first compound 3 µM): 99.2%
- viability, T/C (second compound 1 µM, first compound 0.00949 µM): 91.4%
- viability, T/C (second compound 1 µM, first compound 0.03 µM): 89.3%
- viability, T/C (second compound 1 µM, first compound 0.0949 µM): 97.7%
- viability, T/C (second compound 1 µM, first compound 0.3 µM): 88.7%
- viability, T/C (second compound 1 µM, first compound 0.949 µM): 87.7%
- viability, T/C (second compound 1 µM, first compound 3 µM): 86.4%
- viability, T/C (second compound 3.16 µM, first compound 0.00949 µM): 102%
- viability, T/C (second compound 3.16 µM, first compound 0.03 µM): 94%
- viability, T/C (second compound 3.16 µM, first compound 0.0949 µM): 91.6%
- viability, T/C (second compound 3.16 µM, first compound 0.3 µM): 103%
- viability, T/C (second compound 3.16 µM, first compound 0.949 µM): 95.1%
- viability, T/C (second compound 3.16 µM, first compound 3 µM): 97.7%
- viability, T/C (second compound 10 µM, first compound 0.00949 µM): 99.9%
- viability, T/C (second compound 10 µM, first compound 0.03 µM): 101%
- viability, T/C (second compound 10 µM, first compound 0.0949 µM): 91.4%
- viability, T/C (second compound 10 µM, first compound 0.3 µM): 94.7%
- viability, T/C (second compound 10 µM, first compound 0.949 µM): 97.8%
- viability, T/C (second compound 10 µM, first compound 3 µM): 92.6%

Source: PubChem BioAssay AID1918943 (Molecular Pharmacology Branch, DTP, NCI, 2023)
